Among the data in the METLIN SMRT retention time set (Domingo-Almenara et al. 2019) are RP-LC retention time values, retold here.

Molecules are shown by their SMILES.

The nature of the data set: gradient 5% acetonitrile 3 min, to 50% in 2 min, to 85% in 15 min, held 3 min, 100 µL/min. Conditions: column: Zorbax Extend-C18 2.1 x 50 mm; eluents: water / acetonitrile, 0.1% formic acid. The method, boiled down:
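The system's dead and dwell volumes were 40 μL and 900 μL, with a Zorbax Extend-C18 column (2.1 × 50 mm, 1.8 μm) run at 100 μL/min in water and acetonitrile containing 0.1% formic acid each. Pure standards were analyzed in mixtures of ~100 molecules by HPLC–quadrupole time-of-flight mass spectrometry in positive and negative ionization mode. Retention time was assigned from computationally picked, manually inspected adduct peaks.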
For the molecule `COCCN1C(=O)CS(=O)(=O)C12CCN(C(=O)C1(c3ccccc3)CC1)CC2`, the RP-LC retention time came to 685 s. To `Cc1cc(C)cc(C(=O)NC2CCN(c3cc(-c4ccc(F)cc4)[nH]n3)C2)c1` (stereo not given) belongs 795 s; to `NC(=O)c1cc(-c2ccccc2)sc1NC(=O)c1cc(Cl)sc1Cl`, 1180 s; to `CN1CCN(c2nc3ccccc3nc2Cl)CC1`, 650 s. For `O=C(O)/C=C/C(=O)N1Cc2cc3ccccc3nc2C1`, the RP-LC retention time is 681 s. The molecule `CCc1nn2c(CNS(=O)(=O)c3ccc(F)c(F)c3)c(-c3ccccc3)nc2s1` came in with an RP-LC retention time of 982 s.

As for `CCOC(=O)Nc1ccc(C(=O)/C=C/c2ccccc2)cc1`, the RP-LC retention time worked out at 1000 s. On to `CCS(=O)(=O)NCc1ccc2c(c1)CCN2C(=O)c1cccc(C)c1`, for which the RP-LC retention time amounted to 815 s. To `CC1CC(=O)NN=C1c1ccc(N)c([N+](=O)[O-])c1` (stereo not given) belongs 612 s; to `COc1ccc2c(c1)C1(CCN(C(=O)c3ccccc3C(F)(F)F)C1)C(=O)N2` (stereo not given), 714 s; to `CCCNc1cc(N2CCC(CCC(=O)NCc3cccnc3)CC2)ncn1`, 556 s.

`COc1ccc(Cl)cc1S(=O)(=O)N1CCC(C(=O)NCCC2=CCCCC2)CC1` displayed an RP-LC retention time of 994 s. The same measure for `COc1ccc(CNC(=O)C2(C)CCN(C(=O)Nc3ccc(C)c(Cl)c3)CC2)cc1`: 935 s; for `COCCNC(=O)c1coc(NC(=O)c2cnccn2)n1`: 548 s; for `CCOc1ccc(C(=O)N2CCN(c3cc(-c4ccc(Cl)cc4)[nH]n3)CC2)cc1OCC`: 916 s. To `CCCN1CCN(CCCNC(=O)c2noc3c2CCCCC3)CC1` belongs 594 s. The same measure for `Cc1sc(-c2noc(C3CCC3)n2)cc1S(=O)(=O)N1CCC(C(=O)NCC2CCCO2)CC1` (stereo not given): 937 s; for `Cc1nn2c(nnc3c(=O)n(CCc4c[nH]c5ccccc45)ccc32)c1-c1ccc(F)cc1`: 954 s. Regarding `Cc1c(NC(=O)c2cccc3c2-c2ccccc2C3=O)c(=O)n(-c2ccccc2)n1C`, the RP-LC retention time came to 658 s.

In the case of `CCn1nccc1-c1cccc(-c2noc(-c3cc(OC)cc(OC)c3)n2)c1`, the RP-LC retention time is 1240 s. Molecule `Cc1cc2c(=O)n(CC(=O)Nc3ccc(C)c(Cl)c3)ccc2s1` came in with an RP-LC retention time of 896 s. To `COc1cccc2cc(C(=O)N(CCc3cccs3)Cc3cccnc3)oc12` belongs 671 s; to `O=S(=O)(c1cccs1)N1CCC(n2cnnc2-c2ccccc2)CC1`, 744 s; to `CC1CCN(C(=O)c2cn(-c3cc(N4CCSCC4)ncn3)cn2)CC1`, 858 s.

For the molecule `CCCCn1cc(S(=O)(=O)N2CCN(c3ccccc3F)CC2)c2cccnc21`, the RP-LC retention time worked out at 1190 s. `Cc1cc(F)ccc1NC(=O)Cn1cc2c(n1)CCC(C)C2` (stereo not given) had an RP-LC retention time of 948 s.

`Cc1c(-c2noc(C(=O)NCCN(C)C)n2)oc2c(C)cccc12`: the RP-LC retention time is 676 s. To `CNC(=O)CC1CCOC2(CCN(C(=O)C3CC3)CC2)C1` (stereo not given) belongs 580 s; to `Cc1c(Cl)cccc1NC(=O)CCc1ccc2nc[nH]c2c1`, 614 s; to `CN1C(=O)COc2ccc(-c3csc(NC(=O)c4cccc(Br)c4)n3)cc21`, 1060 s. To `O=C(CN1CCN(C(=O)Nc2ccc(Br)cc2)CC1=O)NC1CCCCCC1` belongs 786 s; to `O=C(c1cc(-c2ccncc2)nc2ccc(Cl)cc12)N1CCN(c2ccccn2)CC1`, 604 s. Molecule `O=C(Nc1ccc(F)c(F)c1)c1c(O)c2cccnc2n(-c2ccccc2)c1=O` showed an RP-LC retention time of 916 s. To `O=C(c1ccoc1)N1CCC(F)(C(=O)NC2CC2)CC1` belongs 569 s. To `CCOc1ccccc1NC(=O)N1CCC2(CC1)NC(=O)c1ccc(F)cc1N2C` belongs 817 s; to `COCCNS(=O)(=O)c1ccc(Cl)c(-c2nnc(-c3ccccc3)o2)c1`, 870 s. Take `CC(NC(=O)c1ccsc1)C(=O)Nc1nc2ccccc2[nH]1` (stereo not given): the RP-LC retention time is 609 s. Consider `Cc1ccc(C)c(NS(=O)(=O)c2cn(C(C)C)c3ncccc23)c1`, for which the RP-LC retention time was 960 s. To `COc1ncccc1C(=O)N1CCC(C(=O)Nc2nccs2)CC1` belongs 605 s. To `O=C(NCC1CCOCC1)Nc1ccccc1C(F)(F)F` belongs 734 s; to `COc1ccc(C(=O)N2CCC(n3c(-c4ccco4)nc4cccnc43)C2)cn1` (stereo not given), 643 s. To `O=c1c2cnc3nc(-c4ccccc4)nn3c2ccn1CCc1c[nH]c2ccc(Cl)cc12` belongs 997 s. In turn, `CCC(=O)Nc1c(C)noc1/C=C\c1ccc(S(=O)(=O)Nc2ccc(S(N)(=O)=O)cc2)cc1` gave an RP-LC retention time of 695 s.

For the molecule `Cc1cc(=O)n(CC(=O)NCc2ccc(F)cc2Cl)c(N)n1`, the RP-LC retention time amounted to 861 s. The same measure for `Cc1cccc(-c2nc(-c3ccc4c(c3)ncn4CCN3CCCC3)no2)c1`: 676 s; for `CCOc1ccc(CN2CCN(C(=O)c3ccc(C#N)cc3)CC2)cn1`: 596 s; for `CCc1ccc(NC(=O)Nc2ccc3nnc(C)n3c2)cc1`: 712 s.

`Cc1ccc(Nc2ccc(N)cc2S(=O)(=O)O)cc1` had an RP-LC retention time of 652 s. To `N#CCSc1nnc2n(CCC(=O)NC3CCCCC3)c(=O)c3ccccc3n12` belongs 687 s; to `Cc1cc(C(=O)Nc2ccc(-c3nc(Cn4cccn4)c(C)o3)cc2)no1`, 823 s. In turn, `Cc1ncsc1CN1CC(Cn2c(C)cnc2-c2ccncc2)C1` registered an RP-LC retention time of 818 s. The same measure for `O=C(CSc1nccn1-c1ccc(C(=O)NCc2cccs2)cc1)Nc1ccccc1`: 671 s.

For `COc1cccc(C(=O)NCc2ccc3[nH]c4c(c3c2)CCCC4)c1OC`, the RP-LC retention time was 910 s. For the molecule `O=C(Nc1cccc(-c2ccc(N3CCCC3)nn2)c1)Nc1c(F)cccc1F`, the RP-LC retention time amounted to 690 s. Molecule `COc1ccccc1CNS(=O)(=O)c1cc(-c2[nH]ncc2C(=O)N(C)C)oc1C` returned an RP-LC retention time of 666 s.

`CCCC(=O)Nc1nc(-c2ccc3c(c2)NC(=O)CO3)cs1` returned an RP-LC retention time of 728 s.

`Cn1nccc1C(=O)N1CCc2c([nH]c3ccccc23)C1c1ccc(Cl)cc1` (stereo not given) had an RP-LC retention time of 1080 s. For the molecule `O=C(NCc1cc(-c2ccco2)on1)c1ncc(-c2ccccc2)o1`, the RP-LC retention time amounted to 863 s. To `Cc1cc(=O)n(CC(=O)Nc2ccc(Cl)cc2)c(-c2ccccc2)n1` belongs 1080 s; to `COc1ccc(N2CCN(C(=O)Cn3nc4nc(N5CCCC5)ccn4c3=O)CC2)cc1`, 639 s. `COc1ccc(CC2C(=O)Nc3ccccc32)cc1Cl` (stereo not given) came in with an RP-LC retention time of 832 s.

For the molecule `O=C(COc1ccc(Cl)cc1Cl)NCC1CCN(C(=O)Oc2ccccc2)CC1`, the RP-LC retention time was 987 s.

Take `Cc1ccc(F)cc1S(=O)(=O)N1CCC(n2c(-c3ccco3)nc3cccnc32)C1` (stereo not given): the RP-LC retention time came out at 910 s.

With `CCOc1ccccc1NC(=O)CN1C(=O)C(O)(c2cccc(C)c2)c2ccccc21` (stereo not given), the RP-LC retention time stood at 640 s. For the molecule `Cc1ccc(NC(=O)N2c3ccccc3CC2c2nc(C3CC3)no2)c(C)c1` (stereo not given), the RP-LC retention time was 1080 s.

For the molecule `Cc1ccccc1Oc1nccnc1N1CCCC(C(=O)NCc2ccc(Br)cc2)C1` (stereo not given), the RP-LC retention time is 960 s. As to `O=C(Cc1ccc(F)cc1)NCC#CCN1CCc2ccccc2C1`, the RP-LC retention time was 565 s. The molecule `O=C(Cn1nc2c3sc(N4CCCCC4)nc3ncn2c1=O)Nc1ccc(F)cc1Cl` displayed an RP-LC retention time of 844 s. `Cc1nn(CCC(=O)NCCCN2CCc3ccccc3C2)c(=O)c2nn(-c3ccccc3)c(C)c12` came in with an RP-LC retention time of 648 s. The same measure for `O=C(c1nc(-c2ccnc(N3CCCCC3)c2)no1)N1CCCC1`: 673 s. `Cc1cc(C)n2nc(SCC(=O)Nc3ccc(F)cc3)nc2n1`: the RP-LC retention time stood at 724 s. To `CCOc1ccc(Br)cc1CNc1ccc2[nH]c(=O)[nH]c2c1` belongs 668 s; to `COc1cccc(-c2[nH]ncc2CN2CCC3(CCC3O)CC2)c1` (stereo not given), 586 s. The same measure for `CCN1CCCn2cc(S(=O)(=O)N3CCN(c4ccccn4)CC3)cc2C1=O`: 577 s.

As to `COc1ccc(C2(C(=O)N3CCCC(c4nc(-c5ccc(NC(C)=O)cc5)no4)C3)CC2)cc1` (stereo not given), the RP-LC retention time was 835 s.

As for `O=C(Nc1ccc(F)cc1)c1nnc(COCC(=O)N2CCN(c3ccccn3)CC2)s1`, the RP-LC retention time came out at 623 s. `C[C@@H]1C(=O)O[C@H]2[C@H](O)[C@@]34C5C[C@@H](C(C)(C)C)[C@]36[C@H](OC(=O)[C@@H]6O)OC4(C(=O)O5)[C@@]12O` (stereo not given in full) gave an RP-LC retention time of 802 s. Take `CC1CCCCN1S(=O)(=O)c1ccc2c(c1)CCC(=O)N2CC(=O)NCc1ccccc1` (stereo not given): the RP-LC retention time was determined as 876 s. As for `CCN(CC)CCOCCOC(=O)C(CC)(CC)c1ccccc1`, the RP-LC retention time stood at 763 s. To `CCOc1ccc(-c2cn3ccn(-c4ccc(Cl)cc4)c(=O)c3n2)cc1` belongs 962 s.
